Measured values: patent US20160199524A1, “RADIOSENSITIVITY OF FLUOROPHORES AND USE OF RADIOPROTECTIVE AGENTS FOR DUAL-MODALITY IMAGING” (Immunomedics, Inc., priority 2015, published 2016)

Assays:
[1] = Stability of Al^18F(IMP485)/IMP487 in human serum at 37° C.; format: in vitro ADME; details: four hours
Procedure: A kit containing 40 nmol of IMP485 or IMP487, 20 nmol AlCl3, 0.1 mg ascorbic acid and 0.1 g trehalose adjusted to pH 3.9 was reconstituted with purified ^18F^− in 200 μL saline and heated 106° C. for 15 min. The reaction mixture was then diluted with 800 μL water and placed on an HLB column. […] The radiolabeled peptide in […] was mixed with 250 μL of fresh human serum in a vial and incubated at 37° C.
The purified radiolabeled peptide in 50 μL 1:1 EtOH/H2O was mixed with 150 μL of human serum and placed in the HPLC autosampler heated to 37° C. and analyzed by RP-HPLC.

[2] = Biodistribution of Al^18F(IMP485) alone or TF2 pretargeted; details: mouse, in vivo, iv
Procedure: Mice were necropsied at 1 and 3 h post injection, 7 mice per time point.
Biodistribution studies were performed in Taconic nude mice bearing subcutaneous LS174T tumor xenografts.
Mice were necropsied at 1 and 3 h post injection, 6 mice per time point.

[3] = Taconic nude, % ID/org Lg. Int.
[4] = Taconic nude, % ID/org Sm. Int.
[5] = nude (Taconic), 28 uCi, total radioactivity, % ID/g Lung

## NC(=O)[C@@H](CCCCNC(=O)CNC(=O)CCC(=O)NCCc1c[nH]cn1)NC(=O)[C@@H](Cc1ccc(O)cc1)NC(=O)[C@@H](CCCCNC(=O)CNC(=O)CCC(=O)NCCc1c[nH]cn1)NC(=O)Cc1ccc(CN2CCN(CC(=O)O)CCN(CC(=O)O)CC2)cc1 [Al^18F(IMP485)]
[1]
  stability in human serum: stable
[2]; Taconic nude
  tissue uptake at 3 h: 0.353 %ID/g
[2]; Taconic nude, % ID/g Blood
  tissue uptake at 3 h: 0.023 %ID/g
[2]; Taconic nude, % ID/g Kidney
  tissue uptake at 1 h: 3.19 %ID/g
[2]; Taconic nude, % ID/g Lg. Int.
  tissue uptake at 1 h: 0.104 %ID/g
  tissue uptake at 3 h: 0.35 ± 0.16 %ID/g
[2]; Taconic nude, % ID/g Liver
  tissue uptake at 1 h: 0.237 %ID/g
[2]; Taconic nude, % ID/g Lung
  tissue uptake at 3 h: 0.244 %ID/g
[2]; Taconic nude, % ID/g Muscle
  tissue uptake at 1 h: 0.136 %ID/g
  tissue uptake at 3 h: 0.025 %ID/g
[2]; Taconic nude, % ID/g Scapula
  tissue uptake at 1 h: 0.5 %ID/g
[2]; Taconic nude, % ID/g Sm. Int.
  tissue uptake at 3 h: 0.071 %ID/g
[2]; Taconic nude, % ID/g Spleen
  tissue uptake at 1 h: 0.254 %ID/g
[2]; Taconic nude, % ID/g Stomach
  tissue uptake at 3 h: 0.025 %ID/g
[2]; Taconic nude, % ID/g Tumor
  tissue uptake at 1 h: 28.1 %ID/g
[2]; Taconic nude, % ID/org Blood
  tissue uptake dose at 3 h: 0.037 %ID
[2]; Taconic nude, % ID/org Kidney
  tissue uptake dose at 1 h: 0.444 %ID
[2]; [3]
  tissue uptake dose at 1 h: 0.055 %ID
  tissue uptake dose at 3 h: 0.206 %ID
[2]; Taconic nude, % ID/org Liver
  tissue uptake dose at 1 h: 0.295 %ID
[2]; Taconic nude, % ID/org Lung
  tissue uptake dose at 3 h: 0.035 %ID
[2]; Taconic nude, % ID/org Muscle
  tissue uptake dose at 1 h: 0.012 %ID
  tissue uptake dose at 3 h: 0.002 %ID
[2]; Taconic nude, % ID/org Scapula
  tissue uptake dose at 1 h: 0.095 %ID
[2]; [4]
  tissue uptake dose at 1 h: 0.586 %ID
  tissue uptake dose at 3 h: 0.059 %ID
[2]; Taconic nude, % ID/org Spleen
  tissue uptake dose at 1 h: 0.02 %ID
[2]; Taconic nude, % ID/org Stomach
  tissue uptake dose at 3 h: 0.01 %ID
[2]; Taconic nude, % ID/org Tumor
  tissue uptake dose at 1 h: 8.03 %ID
[2]; nude (Taconic), 28 uCi, total radioactivity
  tissue uptake at 1 h: 0.114 %ID/g
[2]; nude (Taconic), 28 uCi, total radioactivity, % ID/g Blood
  tissue uptake at 1 h: 0.165 %ID/g
[2]; nude (Taconic), 28 uCi, total radioactivity, % ID/g Lg. Int.
  tissue uptake at 1 h: 0.081 %ID/g
[2]; nude (Taconic), 28 uCi, total radioactivity, % ID/g Liver
  tissue uptake at 1 h: 0.176 %ID/g
[2]; [5]
  tissue uptake at 1 h: 0.238 %ID/g
  tissue uptake at 3 h: 0.073 %ID/g
[2]; nude (Taconic), 28 uCi, total radioactivity, % ID/g Scapula, alone, 1 h post injection
  tissue uptake at 1 h: 0.107 %ID/g
[2]; nude (Taconic), 28 uCi, total radioactivity, % ID/g Sm. Int., alone, 1 h post injection
  tissue uptake at 1 h: 0.396 %ID/g
[2]; nude (Taconic), 28 uCi, total radioactivity, % ID/g Spleen, alone, 1 h post injection
  tissue uptake at 1 h: 0.21 %ID/g
[2]; nude (Taconic), 28 uCi, total radioactivity, % ID/g Stomach, alone, 1 h post injection
  tissue uptake at 1 h: 0.126 %ID/g
[2]; nude (Taconic), 28 uCi, total radioactivity, % ID/g Tumor, alone, 1 h post injection
  tissue uptake at 1 h: 0.316 %ID/g
[2]; nude (Taconic), 28 uCi, total radioactivity, % ID/org Blood, alone, 1 h post injection
  tissue uptake dose at 1 h: 0.268 %ID
[2]; nude (Taconic), 28 uCi, total radioactivity, % ID/org Kidney, alone, 1 h post injection
  tissue uptake dose at 1 h: 0.499 %ID
[2]; nude (Taconic), 28 uCi, total radioactivity, % ID/org Lg. Int., alone, 1 h post injection
  tissue uptake dose at 1 h: 0.041 %ID
[2]; nude (Taconic), 28 uCi, total radioactivity, % ID/org Liver, alone, 1 h post injection
  tissue uptake dose at 1 h: 0.22 %ID
[2]; nude (Taconic), 28 uCi, total radioactivity, % ID/org Lung, alone, 1 h post injection
  tissue uptake dose at 1 h: 0.033 %ID
[2]; nude (Taconic), 28 uCi, total radioactivity, % ID/org Scapula, alone, 1 h post injection
  tissue uptake dose at 1 h: 0.006 %ID
[2]; nude (Taconic), 28 uCi, total radioactivity, % ID/org Sm. Int., alone, 1 h post injection
  tissue uptake dose at 1 h: 0.353 %ID
[2]; nude (Taconic), 28 uCi, total radioactivity, % ID/org Spleen, alone, 1 h post injection
  tissue uptake dose at 1 h: 0.018 %ID
[2]; nude (Taconic), 28 uCi, total radioactivity, % ID/org Stomach, alone, 1 h post injection
  tissue uptake dose at 1 h: 0.057 %ID
[2]; nude (Taconic), 28 uCi, total radioactivity, % ID/org Tumor, alone, 1 h post injection
  tissue uptake dose at 1 h: 0.081 %ID
[2]; nude (Taconic), total radioactivity, % ID/g Kidney
  tissue uptake at 3 h: 2.22 %ID/g
[2]; nude (Taconic), total radioactivity, % ID/g Liver
  tissue uptake at 3 h: 0.142 %ID/g
[2]; nude (Taconic), total radioactivity, % ID/g Scapula
  tissue uptake at 3 h: 0.058 %ID/g
[2]; nude (Taconic), total radioactivity, % ID/g Spleen
  tissue uptake at 3 h: 0.138 %ID/g
[2]; nude (Taconic), total radioactivity, % ID/org Kidney
  tissue uptake dose at 3 h: 0.319 %ID
[2]; nude (Taconic), total radioactivity, % ID/org Liver
  tissue uptake dose at 3 h: 0.178 %ID
[2]; nude (Taconic), total radioactivity, % ID/org Scapula
  tissue uptake dose at 3 h: 0.008 %ID
[2]; nude (Taconic), total radioactivity, % ID/org Spleen
  tissue uptake dose at 3 h: 0.011 %ID
[2]; nude (Taconic), total radioactivity, % ID/org Tumor
  tissue uptake dose at 3 h: 8.13 %ID
[2]; nude, 28 uCi, total radioactivity, % ID/g Lg. Int.
  tissue uptake at 3 h: 0.713 %ID/g
[2]; nude, 28 uCi, total radioactivity, % ID/g Liver
  tissue uptake at 3 h: 0.095 %ID/g
[2]; nude, 28 uCi, total radioactivity, % ID/g Muscle
  tissue uptake at 3 h: 0.013 %ID/g
[2]; nude, 28 uCi, total radioactivity, % ID/g Sm. Int., alone, 3 h post injection
  tissue uptake at 3 h: 0.137 %ID/g
